# Reference: ChEMBL document CHEMBL4346707, “Synthesis and biological evaluation of pyrazolo[3,4-b]pyridine-3-yl pyrimidine derivatives as sGC stimulators for the treatment of pulmonary hypertension” (Eur J Med Chem, 2019)
# The source made the active and inactive calls. The calls are words filed in the database; no cut-off is given here.
# Tests used:
# [1] = species: Rattus norvegicus; assay: Stimulatory activity at sGC in Sprague-Dawley rat thoracic aorta assessed as inhibition of norepinephrine-induced contraction at 1 uM by JZ100 strain guages based isometric analysis relative to control; design: scale not given: the % may be the effect or the level left
# [2] = test system: Heart; assay: Cardioprotective activity in Langendorff perfused Sprague-Dawley rat heart assessed as increase in coronary artery relaxation; type: functional, tissue-based
# [3] = test system: Heart; assay: Cardioprotective activity in Langendorff perfused Sprague-Dawley rat heart assessed as reduction of coronary perfusion pressure at 0.01 to 3 uM relative to control; type: functional
# [4] = test system: Heart; assay: Cardioprotective activity in Langendorff perfused Sprague-Dawley rat heart assessed as reduction of coronary perfusion pressure; type: functional, tissue-based
# [5] = test system: Heart; assay: Cardioprotective activity in Langendorff perfused Sprague-Dawley rat heart assessed as increase in coronary artery blood flow; type: functional, tissue-based
# [6] = Stimulatory activity at sGC in Sprague-Dawley rat thoracic aorta assessed as inhibition of norepinephrine-induced contraction by JZ100 strain guages based isometric analysis
# [7] = Half life in male Beagle dog at 0.5 mg/kg, po by LC-MS/MS analysis; type: ADME, organism-based, Canis lupus familiaris; conditions: in vivo
# [8] = Half life in male Beagle dog at 4.5 mg/kg, po by LC-MS/MS analysis; type: ADME, organism-based, Canis lupus familiaris; conditions: in vivo
# [9] = AUC (0 to infinity) in female Beagle dog at 0.5 mg/kg, po by LC-MS/MS analysis; type: ADME, organism-based, Canis lupus familiaris; design: dose 0.5 mg/kg, route oral, time infinity; conditions: in vivo
# [10] = Cmax in male Beagle dog at 1.5 mg/kg, po by LC-MS/MS analysis; type: ADME, organism-based, Canis lupus familiaris; design: dose 1.5 mg/kg, route oral; conditions: in vivo
# [11] = AUC (0 to infinity) in male Beagle dog at 1.5 mg/kg, po by LC-MS/MS analysis; type: ADME, organism-based, Canis lupus familiaris; design: dose 1.5 mg/kg, route oral, time infinity; conditions: in vivo
# [12] = Apparent volume of distribution in male Beagle dog at 0.5 mg/kg, po by LC-MS/MS analysis; type: ADME, organism-based, Canis lupus familiaris; conditions: in vivo
# [13] = Apparent volume of distribution in male Beagle dog at 4.5 mg/kg, po by LC-MS/MS analysis; type: ADME, organism-based, Canis lupus familiaris; conditions: in vivo
# [14] = Apparent volume of distribution in female Beagle dog at 0.5 mg/kg, po; type: ADME, organism-based, Canis lupus familiaris; conditions: in vivo
# [15] = Apparent clearance in male Beagle dog at 1.5 mg/kg, po by LC-MS/MS analysis; type: ADME, organism-based, Canis lupus familiaris; conditions: in vivo, read-out: CL(app) (converted)
# [16] = Tmax in female Beagle dog at 0.5 mg/kg, po by LC-MS/MS analysis; type: ADME, organism-based, Canis lupus familiaris; conditions: in vivo
# [17] = Apparent volume of distribution in male Beagle dog at 1.5 mg/kg, po by LC-MS/MS analysis; type: ADME, organism-based, Canis lupus familiaris; conditions: in vivo
# [18] = Cmax in male Beagle dog at 0.5 mg/kg, po by LC-MS/MS analysis; type: ADME, organism-based, Canis lupus familiaris; design: dose 0.5 mg/kg, route oral; conditions: in vivo
# [19] = Apparent clearance in male Beagle dog at 0.5 mg/kg, po by LC-MS/MS analysis; type: ADME, organism-based, Canis lupus familiaris; conditions: in vivo, read-out: CL(app) (converted)
# [20] = Apparent clearance in male Beagle dog at 4.5 mg/kg, po by LC-MS/MS analysis; type: ADME, organism-based, Canis lupus familiaris; conditions: in vivo, read-out: CL(app) (converted)
# [21] = Cmax in female Beagle dog at 0.5 mg/kg, po by LC-MS/MS analysis; type: ADME, organism-based, Canis lupus familiaris; design: dose 0.5 mg/kg, route oral; conditions: in vivo
# [22] = Half life in female Beagle dog at 0.5 mg/kg, po by LC-MS/MS analysis; type: ADME, organism-based, Canis lupus familiaris; conditions: in vivo
# [23] = test system: Heart; assay: Potency index. ratio of EC50 of riociguat to EC50 of compound for cardioprotective activity in Langendorff perfused Sprague-Dawley rat heart assessed as increase in coronary artery relaxation; type: functional
# [24] = Tmax in male Beagle dog at 0.5 mg/kg, po by LC-MS/MS analysis; type: ADME, organism-based, Canis lupus familiaris; conditions: in vivo
# [25] = AUC (0 to infinity) in male Beagle dog at 0.5 mg/kg, po by LC-MS/MS analysis; type: ADME, organism-based, Canis lupus familiaris; design: dose 0.5 mg/kg, route oral, time infinity; conditions: in vivo
# [26] = Tmax in male Beagle dog at 1.5 mg/kg, po by LC-MS/MS analysis; type: ADME, organism-based, Canis lupus familiaris; conditions: in vivo
# [27] = Tmax in male Beagle dog at 4.5 mg/kg, po by LC-MS/MS analysis; type: ADME, organism-based, Canis lupus familiaris; conditions: in vivo
# [28] = Half life in male Beagle dog at 1.5 mg/kg, po by LC-MS/MS analysis; type: ADME, organism-based, Canis lupus familiaris; conditions: in vivo
# [29] = Apparent clearance in female Beagle dog at 0.5 mg/kg, po by LC-MS/MS analysis; type: ADME, organism-based, Canis lupus familiaris; conditions: in vivo, read-out: CL(app) (converted)
# [30] = Cmax in male Beagle dog at 4.5 mg/kg, po by LC-MS/MS analysis; type: ADME, organism-based, Canis lupus familiaris; design: dose 4.5 mg/kg, route oral; conditions: in vivo
# [31] = AUC (0 to infinity) in male Beagle dog at 4.5 mg/kg, po by LC-MS/MS analysis; type: ADME, organism-based, Canis lupus familiaris; design: dose 4.5 mg/kg, route oral, time infinity; conditions: in vivo
# [32] = Oral bioavailability (0 to infinity) in male Beagle dog at 0.5 mg/kg by LC-MS/MS analysis; type: ADME, organism-based, Canis lupus familiaris; conditions: in vivo
structure (smiles),measurement,setting,value
CCN(C(=O)OC(C)C)c1c(N)nc(-c2nn(Cc3cncc(C)c3)c3ncccc23)nc1N,Activity,[1],0%
CCOC(=O)N(C)c1c(N)nc(-c2nn(Cc3cncc(C)c3)c3ncccc23)nc1N,Activity,[1],47.4%
CCOC(=O)N(C)c1c(N)nc(-c2nn(Cc3ccc(F)s3)c3ncccc23)nc1N,Activity,[1],38.4%
COC(=O)Nc1c(N)nc(-c2nn(Cc3ccc(F)s3)c3ncccc23)nc1N,Activity,[1],30%
Cc1cncc(Cn2nc(-c3nc(N)c(N(C)C(=O)OC(C)C)c(N)n3)c3cccnc32)c1,Activity,[1],32.4%
COC(=O)N(C)c1c(N)nc(-c2nn(Cc3cccnc3F)c3ncccc23)nc1N,Activity,[1],21.1%
CCN(C(=O)OC)c1c(N)nc(-c2nn(Cc3sccc3F)c3ncccc23)nc1N,Activity,[2],Active
same,Emax,[3],60%
same,Activity,[4],Dose-dependent effect
same,EC50,[4],180 nM
same,Activity,[5],Active
same,EC50,[6],210 nM
same,Activity,[1],85.4%
COC(=O)Nc1c(N)nc(-c2nn(Cc3sccc3F)c3ncccc23)nc1N,Activity,[1],14.3%
CC(C)OC(=O)N(C)c1c(N)nc(-c2nn(Cc3sccc3F)c3ncccc23)nc1N,Activity,[2],Active
same,Emax,[3],60%
same,Activity,[4],Dose-dependent effect
same,EC50,[4],110 nM
same,Activity,[5],Active
same,EC50,[6],180 nM
same,Activity,[1],75.1%
CCOC(=O)N(CC)c1c(N)nc(-c2nn(Cc3sccc3F)c3ncccc23)nc1N,EC50,[6],240 nM
same,Activity,[1],85.6%
CCN(C(=O)OC(C)C)c1c(N)nc(-c2nn(Cc3sccc3F)c3ncccc23)nc1N,EC50,[6],870 nM
same,Activity,[1],76.2%
COC(=O)N(C)c1c(N)nc(-c2nn(Cc3ccc(F)s3)c3ncccc23)nc1N,Activity,[1],39.2%
CCOC(=O)N(C)c1c(N)nc(-c2nn(Cc3sccc3F)c3ncccc23)nc1N,EC50,[6],380 nM
same,Activity,[1],86.6%
CCOC(=O)N(CC)c1c(N)nc(-c2nn(Cc3cncc(C)c3)c3ncccc23)nc1N,Activity,[1],3%
CC(C)OC(=O)N(C)c1c(N)nc(-c2nn(Cc3ccc(F)s3)c3ncccc23)nc1N,Activity,[1],38.1%
CCOC(=O)Nc1c(N)nc(-c2nn(Cc3sccc3F)c3ncccc23)nc1N,Activity,[1],27.3%
CC(C)OC(=O)Nc1c(N)nc(-c2nn(Cc3cccnc3F)c3ncccc23)nc1N,Activity,[1],12.5%
CC(C)OC(=O)Nc1c(N)nc(-c2nn(Cc3sccc3F)c3ncccc23)nc1N,Activity,[1],42.3%
CCN(C(=O)OC)c1c(N)nc(-c2nn(Cc3ccc(F)s3)c3ncccc23)nc1N,Activity,[1],51.9%
CCOC(=O)N(CC)c1c(N)nc(-c2nn(Cc3ccc(F)s3)c3ncccc23)nc1N,Activity,[1],48.4%
CC(C)OC(=O)N(C)c1c(N)nc(-c2nn(Cc3cccnc3F)c3ncccc23)nc1N,Activity,[1],1.9%
CCN(C(=O)OC(C)C)c1c(N)nc(-c2nn(Cc3cccnc3F)c3ncccc23)nc1N,Activity,[1],9%
COC(=O)N(C)c1c(N)nc(-c2nn(Cc3ccccc3F)c3ncccc23)nc1N [RIOCIGUAT],EC50,[4],270 nM
same,EC50,[6],300 nM
same,Activity,[1],88.9%
COC(=O)Nc1c(N)nc(-c2nn(Cc3cccnc3F)c3ncccc23)nc1N,Activity,[1],11.8%
COC(=O)N(C)c1c(N)nc(-c2nn(Cc3cccs3)c3ncccc23)nc1N,Activity,[1],45.1%
CCOC(=O)Nc1c(N)nc(-c2nn(Cc3ccc(F)s3)c3ncccc23)nc1N,Activity,[1],57.4%
COC(=O)N(C)c1c(N)nc(-c2nn(Cc3sccc3F)c3ncccc23)nc1N,Activity,[2],Active
same,half-life,[7],2.04 h
same,half-life,[8],3.77 h
same,AUC(0-inf),[9],198 ng·h/mL
same,Cmax,[10],106 ng/mL
same,AUC(0-inf),[11],373 ng·h/mL
same,Vz,[12],7.9 L/kg
same,Vz,[13],41.14 L/kg
same,Emax,[3],60%
same,Vz,[14],6.38 L/kg
same,CL/F,[15],96 mL/min/kg
same,Tmax,[16],1.25 h
same,Vz,[17],43.47 L/kg
same,Cmax,[18],83.8 ng/mL
same,Activity,[4],Dose-dependent effect
same,EC50,[4],86 nM
same,CL/F,[19],41 mL/min/kg
same,CL/F,[20],103 mL/min/kg
same,Activity,[5],Active
same,Cmax,[21],72.4 ng/mL
same,half-life,[22],1.75 h
same,Ratio EC50,[23],3
same,Tmax,[24],0.6 h
same,AUC(0-inf),[25],213 ng·h/mL
same,Tmax,[26],0.75 h
same,Tmax,[27],1.55 h
same,half-life,[28],3.24 h
same,CL/F,[29],42.3 mL/min/kg
same,Cmax,[30],175 ng/mL
same,AUC(0-inf),[31],874 ng·h/mL
same,EC50,[6],110 nM
same,bioavailability,[32],80%
same,Activity,[1],87%
CC(C)OC(=O)Nc1c(N)nc(-c2nn(Cc3ccc(F)s3)c3ncccc23)nc1N,Activity,[1],17.1%
CCN(C(=O)OC(C)C)c1c(N)nc(-c2nn(Cc3ccc(F)s3)c3ncccc23)nc1N,Activity,[1],41%
COC(=O)N(C)c1c(N)nc(-c2nn(Cc3cncc(C)c3)c3ncccc23)nc1N,Activity,[1],31%
CCN(C(=O)OC)c1c(N)nc(-c2nn(Cc3cncc(C)c3)c3ncccc23)nc1N,Activity,[1],2.8%
